According to paper PMC10743905, “Design, Synthesis, and In Vitro and In Vivo Bioactivity Studies of Hydrazide–Hydrazones of 2,4-Dihydroxybenzoic Acid” (International Journal of Molecular Sciences, 2023):
In brackets after ≈: the same amount, converted by molar mass. Where two headings read alike, the source gives them in different places.

Tests used:
[1] = tested on: Candida albicans ATCC 10231; assay: Broth microdilution MIC/MFC; assay type: cell-based; details: ATCC10231, read-out: MIC
From the text: (§1) In vitro antimicrobial activity assays - Methodology
(§2) The examined compounds 1 - 24 were screened in vitro for antibacterial and antifungal activities using the broth microdilution method according to procedure reported earlier by our research group and European Committee on Antimicrobial Susceptibility Testing (EUCAST) and Clinical and Laboratory Standards Institute (CLSI) guidelines against a panel of reference and clinical or saprophytic strains of microorganisms, in-cluding Gram-positive bacteria, Staphylococcus aureus ATCC 43300 (Methicillin Resistant S. aureus – MRSA), Staphylococcus aureus ATCC 29213 (Methicillin Susceptible S. aureus – MSSA), Staphylococcus epidermidis ATCC 12228, Enterococcus faecalis ATCC 29212, Micro-coccus luteus ATCC 10240, Bacillus subtilis ATCC 6633 and Bacillus cereus ATCC 10876), Gram-negative bacteria (Bordetella bronchiseptica ATCC 4617, Escherichia coli ATCC 25922, Klebsiella pneumoniae ATCC 13883, Proteus mirabilis ATCC 12453, Salmonella typhimurium ATCC 14028 and Pseudomonas aeruginosa ATCC 9027) and fungi belonging to yeasts (Can-dida albicans ATCC 10231, Candida albicans ATCC 2091, Candida parapsilosis ATCC 22019, Candida glabrata ATCC 90030 and Candida krusei ATCC 14243). The microorganisms be-longing to ATCC came from American Type Culture Collection, routinely used for the evaluation of antimicrobials. All the used microbial cultures were first subcultured on nu-trient agar or Sabouraud agar at 35°C for 18-24 h or 30°C for 24-48 h for bacteria and fungi, […]
(§3) The surface of Mueller-Hinton agar (for bacteria) and RPMI 1640 with MOPS (for fungi) were inoculated with the suspensions of bacterial or fungal species. Microbial suspensions were prepared in sterile saline with an optical density of McFarland standard scale 0.5.
(§4) Samples containing examined compounds were dissolved in dimethyl sulfoxide (DMSO).
(§5) Furthermore, bacterial and fungal suspensions were put onto Petri dishes with solid me-dia containing 2 mg/mL of the tested compounds followed incubation at 37°C for 24h and 30°C for 48h for bacteria and fungi, respectively. The inhibition of microbial growth was judged by comparison with a control culture prepared without any sample tested. Ciprof-loxacin, vancomycin, nitrofurantoin, cefuroxime, ampicillin or nystatin (Sigma) were used as a reference antibacterial or antifungal compounds, respectively.
(§6) Subsequently, the MIC (Minimal Inhibitory Concentration) of the compounds was ex-amined by the microdilution broth method, using their two-fold dilutions in Mueller- […]
(§7) Hinton broth or (for bacteria) and RPMI 1640 broth with MOPS (for fungi) prepared in 96-well polystyrene plates. Final concentrations of the compounds ranged from 1000 to 0.488 µg/ml. Microbial suspensions were prepared in 0.85% NaCl with an optical density of 0.5 McFarland standard. Next each bacterial or fungal suspension was added per each well containing broth and various concentrations of the examined compounds. After incuba-

[2] = tested on: Candida krusei ATCC 14243; assay: Broth microdilution MIC/MFC; assay type: cell-based; details: Pichia kudriavzevii, ATCC14243, read-out: MIC
From the text: as §1, §2, §3, §4, §5, §6, §7

[3] = tested on: Candida albicans ATCC 2091; assay: Broth microdilution MIC/MFC; assay type: cell-based; details: ATCC2091, read-out: MIC
From the text: as §1, §2, §3, §4, §5, §6, §7

[4] = tested on: Candida glabrata ATCC 90030; assay: Broth microdilution MIC/MFC; assay type: cell-based; details: Nakaseomyces glabratus, ATCC90030, read-out: MIC
From the text: as §1, §2, §3, §4, §5, §6, §7

[5] = tested on: Candida parapsilosis ATCC 22019; assay: Broth microdilution MIC/MFC; assay type: cell-based; details: for MIC: ATCC22019, read-out: MIC
From the text: as §1, §2, §3, §4, §5, §6, §7

[6] = tested on: Bacillus subtilis ATCC 6633; assay: Broth microdilution MIC/MBC; assay type: cell-based; details: for MIC: ATCC6633, read-out: MIC
From the text: Detailed procedures are presented in the Supplementary Materials. […]
as §1, §2, §3, §4, §5, §6, §7

[7] = tested on: Klebsiella pneumoniae ATCC 13883; assay: Broth microdilution MIC/MBC; assay type: cell-based; details: ATCC13883
From the text: as §1, §2, §3, §4, §5, §6, §7

[8] = tested on: Bacillus cereus ATCC 10876; assay: Broth microdilution MIC/MBC; assay type: cell-based
From the text: as §1, §2, §3, §4, §5, §6, §7

[9] = tested on: Escherichia coli ATCC 25922; assay: Broth microdilution MIC/MBC; assay type: cell-based; details: ATCC25922
From the text: as §1, §2, §3, §4, §5, §6, §7

[10] = tested on: Enterococcus faecalis ATCC 29212; assay: Broth microdilution MIC/MBC; assay type: cell-based; details: for MIC: ATCC29212, read-out: MIC
From the text: as §1, §2, §3, §4, §5, §6, §7

[11] = tested on: Bordetella bronchiseptica ATCC 4617; assay: Broth microdilution MIC/MBC; assay type: cell-based; details: ATCC4617
From the text: as §1, §2, §3, §4, §5, §6, §7

[12] = tested on: Staphylococcus epidermidis ATCC 12228; assay: Broth microdilution MIC/MBC; assay type: cell-based; details: for MBC: ATCC12228; for MIC: ATCC12228, read-out: MIC
From the text: as §1
as §2, with “antimicrobials.” for “antimicrobials. All the used microbial cultures were first subcultured on nu-trient agar or Sabouraud agar at 35°C for 18-24 h or 30°C for 24-48 h for bacteria and fungi,”
(§8) Samples containing examined compounds were dissolved in dimethyl sulfoxide (DMSO). […]
as §6, §7

[13] = tested on: Salmonella typhimurium ATCC 14028; assay: Broth microdilution MIC/MBC; assay type: cell-based; details: Salmonella enterica
From the text: as §1
as §2, with “antimicrobials.” for “antimicrobials. All the used microbial cultures were first subcultured on nu-trient agar or Sabouraud agar at 35°C for 18-24 h or 30°C for 24-48 h for bacteria and fungi,”
as §8, §6, §7

[14] = tested on: Micrococcus luteus ATCC 10240; assay: Broth microdilution MIC/MBC; assay type: cell-based; details: for MBC: ATCC10240; for MIC: ATCC10240, read-out: MIC
From the text: as §1
as §2, with “antimicrobials.” for “antimicrobials. All the used microbial cultures were first subcultured on nu-trient agar or Sabouraud agar at 35°C for 18-24 h or 30°C for 24-48 h for bacteria and fungi,”
as §8, §6, §7

[15] = tested on: Staphylococcus aureus ATCC 43300; assay: Broth microdilution MIC/MBC; assay type: cell-based; details: Staphylococcus aureus ATCC 43300 (MRSA)
From the text: as §1
as §2, with “antimicrobials.” for “antimicrobials. All the used microbial cultures were first subcultured on nu-trient agar or Sabouraud agar at 35°C for 18-24 h or 30°C for 24-48 h for bacteria and fungi,”
as §8, §6, §7

[16] = tested on: Proteus mirabilis ATCC 12453; assay: Broth microdilution MIC/MBC; assay type: cell-based; details: ATCC12453
From the text: as §1
as §2, with “antimicrobials.” for “antimicrobials. All the used microbial cultures were first subcultured on nu-trient agar or Sabouraud agar at 35°C for 18-24 h or 30°C for 24-48 h for bacteria and fungi,”
as §8, §6, §7

[17] = tested on: Pseudomonas aeruginosa ATCC 9027; assay: Broth microdilution MIC/MBC; assay type: cell-based; details: ATCC9027
From the text: as §1
as §2, with “antimicrobials.” for “antimicrobials. All the used microbial cultures were first subcultured on nu-trient agar or Sabouraud agar at 35°C for 18-24 h or 30°C for 24-48 h for bacteria and fungi,”
as §8, §6, §7

[18] = tested on: Staphylococcus aureus ATCC 29213; assay: Broth microdilution MIC/MBC; assay type: cell-based
From the text: as §1
as §2, with “antimicrobials.” for “antimicrobials. All the used microbial cultures were first subcultured on nu-trient agar or Sabouraud agar at 35°C for 18-24 h or 30°C for 24-48 h for bacteria and fungi,”
as §8, §6, §7

Q: Which results are given for `COc1ccc(/C=N/NC(=O)c2ccc(O)cc2O)cc1Cl` [Compound 9, N-[(3-chloro-4-methoxyphenyl)methylidene]-2,4-dihydroxybenzohydrazide]?
A: MIC [1]: > 1000 µg/mL; MIC [2]: > 1000 µg/mL; MIC [3]: > 1000 µg/mL; MIC [4]: > 1000 µg/mL; MIC ([5]; Lodderomyces parapsilosis): > 1000 µg/mL; MBC/MIC [6]: 4; MBC ([6]; ATCC6633): 500 µg/mL (≈ 1560 µM); MIC [6]: 125 µg/mL (≈ 390 µM); MIC [7]: > 1000 µg/mL; MBC/MIC [8]: 4; MIC [8]: 15.62 µg/mL (≈ 48.7 µM); MBC ([8]; ATCC10876): 62.5 µg/mL (≈ 195 µM); MIC ([8]; ATCC10876, read-out: MIC): 15.6 µg/mL (≈ 48.7 µM); MIC [9]: > 1000 µg/mL; MBC/MIC [10]: 4; MBC ([10]; ATCC29212, read-out: MBC): 500 µg/mL (≈ 1560 µM); MIC [10]: 125 µg/mL (≈ 390 µM); MIC [11]: > 1000 µg/mL; melting point: 256 °C; MBC/MIC [12]: 2; MBC [12]: 125 µg/mL (≈ 390 µM); MIC [12]: 62.5 µg/mL (≈ 195 µM); MIC [13]: > 1000 µg/mL; MBC/MIC [14]: 4; MBC [14]: 500 µg/mL (≈ 1560 µM); MIC [14]: 125 µg/mL (≈ 390 µM); MBC [15]: 62.5 µg/mL (≈ 195 µM); MBC/MIC [15]: 4; MIC [15]: 15.6 µg/mL (≈ 48.7 µM); MIC [16]: > 1000 µg/mL; MIC [17]: > 1000 µg/mL; MBC/MIC [18]: 1; MBC ([18]; ATCC29213): 31.2 µg/mL (≈ 97.4 µM); MIC ([18]; ATCC29213): 31.2 µg/mL (≈ 97.4 µM)

Q: What does the source list for `COc1ccc(/C=N/NC(=O)c2ccc(O)cc2O)c(Br)c1O` [Compound 15, N-[(2-bromo-3-hydroxy-4-methoxyphenyl)methylidene]-2,4-dihydroxybenzohydrazide]?
A: MIC [1]: > 1000 µg/mL; MIC [2]: > 1000 µg/mL; MIC [3]: > 1000 µg/mL; MIC [4]: > 1000 µg/mL; MFC/MIC [5]: > 1; MFC ([5]; Lodderomyces parapsilosis, ATCC22019, read-out: MFC): > 1000 µg/mL; MIC ([5]; Lodderomyces parapsilosis): 1000 µg/mL (≈ 2620 µM); MIC [6]: > 1000 µg/mL; MIC [7]: > 1000 µg/mL; MIC ([8]; ATCC10876, read-out: MIC): > 1000 µg/mL; MIC [9]: > 1000 µg/mL; MIC [10]: > 1000 µg/mL; MIC [11]: > 1000 µg/mL; melting point: 244 °C; MBC/MIC [12]: > 1; MBC [12]: > 1000 µg/mL; MIC [12]: 1000 µg/mL (≈ 2620 µM); MIC [13]: > 1000 µg/mL; MBC/MIC [14]: > 2; MBC [14]: > 1000 µg/mL; MIC [14]: 500 µg/mL (≈ 1310 µM); MIC [15]: > 1000 µg/mL; MIC [16]: > 1000 µg/mL; MIC [17]: > 1000 µg/mL; MIC ([18]; ATCC29213): > 1000 µg/mL
